In patent US12502362B2, “Inhibitors of nucleotidyltransferase superfamily enzymes as antibiotics” (priority 2017, dated 2025):
In brackets after ≈: the same amount, converted by molar mass.

Assays:
S. aureus (ATCC 29213) = test: MIC80 on S. aureus; assay type: cell-based, Staphylococcus aureus; conditions: Staphylococcus aureus, ATCC 29213 / MSSA, read-out: MIC80 S. aureus, S. aureus ATCC 29213 (MSSA); ≥80% growth inhibition
[1] = tested on: Staphylococcus saprophyticus (ATCC BAA-750); test: MIC80 on S. saprophyticus; assay type: cell-based; conditions: Staphylococcus saprophyticus, ATCCBAA750; S. saprophyticus ATCC BAA-750; read-out: MIC80 S. sapro
Protocol: (§1) To further characterize the compounds, the minimal inhibitory concentration (MIC80) were determined for selected compounds. MIC80 is defined as the compound concentration at which ≥80% bacterial growth is inhibited compare to untreated controls. Meanwhile, for the selected compounds, cytotoxicity assays (CC50) were performed on a HepG2-derived hepatoblastoma cell line (HEPDES19). […] For CC50 evaluation, soluble tetrazolium dye (MTS) was used to measure mitochondrial toxicity in a human hepatoblastoma cell line (18). The bacteria (E. coli, S. saprophyticus and A. baumannii) used in MIC80 measurements were the same as that in the primary screening, but for Staphylococcus, S. aureus is used primarily because it is a common pathogen in Staphylococcaeae family, while S. saprophyticus is part of the normal human flora.

[2] = tested on: Acinetobacter baumannii (Abl, from a patient); test: microbe, parasite or virus in culture; assay type: cell-based; conditions: Acinetobacter baumannii, read-out: MIC80 A. baumannii, A. baumannii Ab1, MDR patient isolate
E. coli (ATCC 35218) = test: microbe, parasite or virus in culture; assay type: cell-based; conditions: for MIC80: Escherichia coli, ATCC35218, read-out: MIC80 E. coli, E. coli ATCC 35218
[3] = Cytotoxicity assay (CC50), MTS; assay type: cell-based, human; conditions: human, HepG2-derived hepatoblastoma cell line (HEPDES19), HEPDES19 cells
Protocol: as §1

[4] = tested on: HepG2-derived hepatoblastoma cell line (HEPDES19); test: Cytotoxicity assay (CC50), MTS; assay type: cell-based, human; conditions: HEPDES19 cells
Protocol: as §1

[5] = tested on: S. aureus and/or S. saprophyticus; test: MIC80 on S. aureus and/or S. saprophyticus; assay type: cell-based; conditions: read-out: MIC80 against S. aureus and/or S. saprophyticus
Protocol: as §1, with “(HEPDES19). […] For the MIC80 measurements, a 1.5 fold dilution series of the compounds was prepared in Mueller-Hinton II broth.” for “(HEPDES19).”, “flora. S. aureus (ATCC 29213) is methicillin-sensitive Staphylococcus aureus (MSSA) strain and it was used as a model strain to measure the MIC80.” for “flora.”

[6] = tested on: S. aureus ATCC strains and methicillin-resistant Staphylococcus aureus (MRSA); test: MIC80 on S. aureus ATCC strains and MRSA; assay type: cell-based
Protocol: as §1

[7] = tested on: Staphylococcus epidermidis; test: MIC80 on S. epidermidis; assay type: cell-based
Protocol: as §1, with “(HEPDES19). […] For the MIC80 measurements, a 1.5 fold dilution series of the compounds was prepared in Mueller-Hinton II broth.” for “(HEPDES19).”, “flora. S. aureus (ATCC 29213) is methicillin-sensitive Staphylococcus aureus (MSSA) strain and it was used as a model strain to measure the MIC80.” for “flora.”
(§2) It was also tested whether compounds #63 and #285 can inhibit other coagulase-negative Staphylococcus (CNS) including S. epidermidis, S. hominis, etc. […] .

Staphylococcus hominis = test: MIC80 on S. hominis; assay type: cell-based
Protocol: as §1, with “(HEPDES19). […] For the MIC80 measurements, a 1.5 fold dilution series of the compounds was prepared in Mueller-Hinton II broth.” for “(HEPDES19).”, “flora. S. aureus (ATCC 29213) is methicillin-sensitive Staphylococcus aureus (MSSA) strain and it was used as a model strain to measure the MIC80.” for “flora.”
as §2

[8] = tested on: Coagulase negative Staphylococcus; test: MIC80 on coagulase negative Staphylococcus; assay type: cell-based
Protocol: as §1, with “(HEPDES19). […] For the MIC80 measurements, a 1.5 fold dilution series of the compounds was prepared in Mueller-Hinton II broth.” for “(HEPDES19).”, “flora. S. aureus (ATCC 29213) is methicillin-sensitive Staphylococcus aureus (MSSA) strain and it was used as a model strain to measure the MIC80.” for “flora.”
as §2

Citrobacter koseri = test: microbe, parasite or virus in culture; assay type: cell-based; conditions: Citrobacter koseri
Protocol: as §1
(§3) All these MDR-bacteria are at least resistant to two classes of the antibiotics among five groups and/or specific antibiotics including quinolones/fluorquinolones, carbapenems, cephalosporins, aminoglycosides and piperacillin-tazobactam.

[9] = tested on: Enterobacter cloacae complex; test: microbe, parasite or virus in culture; assay type: cell-based; conditions: Enterobacter cloacae
Protocol: as §1, §3

Klebsiella pneumoniae = test: microbe, parasite or virus in culture; assay type: cell-based; conditions: Klebsiella pneumoniae
Protocol: as §1, §3

MDR E. coli = test: microbe, parasite or virus in culture; assay type: cell-based; conditions: Escherichia coli
Protocol: as §1, §3

MDR Enterobacteriaceae = test: microbe, parasite or virus in culture; assay type: cell-based; conditions: Escherichia coli, read-out: MIC80 on MDR Enterobacteriaceae
Protocol: as §1, §3

Morganella morganii = test: microbe, parasite or virus in culture; assay type: cell-based; conditions: Morganella morganii
Protocol: as §1, §3

In the case of `O=C(Oc1cccccc1=O)c1ccc(Cl)cc1` [Compound 63], the MIC80 (S. aureus (ATCC 29213)) is reported as 16.5 µM (≈ 4.3 µg/mL), the MIC80 [1] is reported as 9.2 µM (≈ 2.4 µg/mL) and the MIC80 [2] is reported as 83.4 µM (≈ 21.7 µg/mL). The MIC80 (E. coli (ATCC 35218)) was 111 µM (≈ 29 µg/mL), the CC50 [3] was greater than 50 µM and the CC50 [4] was no less than 100 µM. It also gave an MIC80 [5] of less than 20 µM, an MIC80 ([6]; ATCC 25923 / MRSA, S. aureus ATCC 25923) of 8.8 µM (≈ 2.29 µg/mL) and an MIC80 ([6]; ATCC 29213 / MRSA, S. aureus ATCC 29213 (Table 3)) of 8.8 µM (≈ 2.29 µg/mL). It also gave an MIC80 ([6]; BAA-976 / MRSA, S. aureus ATCC BAA 976) of 13.2 µM (≈ 3.44 µg/mL), an MIC80 ([6]; BAA-977 / MRSA, S. aureus ATCC BAA 977) of 8.8 µM (≈ 2.29 µg/mL) and an MIC80 ([6]; MRSA, Sa1 (MRSA)) of 8.8 µM (≈ 2.29 µg/mL). For the same molecule, the MIC80 ([6]; MRSA, Sa2 (MRSA)) was 8.8 µM (≈ 2.29 µg/mL), the MIC80 ([6]; MRSA, Sa3 (MRSA)) was 8.8 µM (≈ 2.29 µg/mL) and the MIC80 ([6]; MRSA, Sa5 (MRSA)) was 8.8 µM (≈ 2.29 µg/mL). The MIC80 ([6]; MRSA, Sa6 (MRSA)) was 8.8 µM (≈ 2.29 µg/mL), the MIC80 ([6]; MRSA, Sa7 (MRSA)) was 8.8 µM (≈ 2.29 µg/mL) and the MIC80 ([6]; MRSA, Sa8 (MRSA)) was 8.8 µM (≈ 2.29 µg/mL). It also gave an MIC80 ([6]; MRSA, Sa9 (MRSA)) of 8.8 µM (≈ 2.29 µg/mL), an MIC80 ([6]; MRSA, Sa10 (MRSA)) of 8.8 µM (≈ 2.29 µg/mL) and an MIC80 ([6]; MRSA, Sa11 (MRSA)) of 8.8 µM (≈ 2.29 µg/mL). It also gave an MIC80 ([6]; MRSA, Sa12 (MRSA)) of 8.8 µM (≈ 2.29 µg/mL), an MIC80 ([6]; MRSA, Sa14 (MRSA)) of 8.8 µM (≈ 2.29 µg/mL) and an MIC80 ([6]; MRSA, Sa15 (MRSA)) of 8.8 µM (≈ 2.29 µg/mL). The MIC80 ([6]; MRSA, Sa16 (MRSA)) was 8.8 µM (≈ 2.29 µg/mL), the MIC80 ([6]; MRSA, Sa17 (MRSA)) was 8.8 µM (≈ 2.29 µg/mL) and the MIC80 ([6]; MRSA, Sa18 (MRSA)) was 8.8 µM (≈ 2.29 µg/mL). It also gave an MIC80 ([6]; MRSA, Sa19 (MRSA)) of 8.8 µM (≈ 2.29 µg/mL), an MIC80 ([6]; MRSA, Sa20 (MRSA)) of 8.8 µM (≈ 2.29 µg/mL) and an MIC80 ([6]; MRSA, Sa21 (MRSA)) of 8.8 µM (≈ 2.29 µg/mL). The MIC80 ([6]; MRSA, Sa22 (MRSA)) was 8.8 µM (≈ 2.29 µg/mL), the MIC80 ([6]; MRSA, Sa23 (MRSA)) was 8.8 µM (≈ 2.29 µg/mL) and the MIC80 ([7]; Se1 (Staphylococcus epidermidis)) was 8.8 µM (≈ 2.29 µg/mL). It also gave an MIC80 ([7]; Se2 (Staphylococcus epidermidis)) of 8.8 µM (≈ 2.29 µg/mL), an MIC80 ([7]; Se3 (Staphylococcus epidermidis)) of 8.8 µM (≈ 2.29 µg/mL) and an MIC80 ([7]; Se4 (Staphylococcus epidermidis)) of 8.8 µM (≈ 2.29 µg/mL). For the same molecule, the MIC80 ([7]; Se5 (Staphylococcus epidermidis)) was 8.8 µM (≈ 2.29 µg/mL), the MIC80 (Staphylococcus hominis; Sh1 (Staphylococcus hominis)) was 8.8 µM (≈ 2.29 µg/mL) and the MIC80 (Staphylococcus hominis; Sh2 (Staphylococcus hominis)) was 13.2 µM (≈ 3.44 µg/mL). The MIC80 (Staphylococcus hominis; Sh3 (Staphylococcus hominis)) was 8.8 µM (≈ 2.29 µg/mL), the MIC80 ([8]; CNS1 (Coagulase negative Staphylococcus)) was 13.2 µM (≈ 3.44 µg/mL) and the MIC80 ([8]; CNS2 (Coagulase negative Staphylococcus)) was 5.9 µM (≈ 1.54 µg/mL).
Work on `Cc1ccc(C(=O)Sc2cccccc2=O)cc1` [Compound 284] yielded an MIC80 (S. aureus (ATCC 29213)) of 15 µM (≈ 3.84 µg/mL), an MIC80 [1] of 44.4 µM (≈ 11.4 µg/mL) and an MIC80 [2] of 55.6 µM (≈ 14.3 µg/mL). For the same molecule, the “MIC80 E. coli” value (E. coli (ATCC 35218); E. coli ATCC 35218) was 24.1 µM (≈ 6.18 µg/mL), the MIC80 (E. coli (ATCC 35218)) was less than 30 µM and the CC50 [3] was greater than 50 µM. It also gave an MIC80 [5] of less than 20 µM, an MIC80 (Citrobacter koseri) of 8.8 µM (≈ 2.26 µg/mL) and an MIC80 [9] of 8.8 µM (≈ 2.26 µg/mL). It also gave an MIC80 (Klebsiella pneumoniae; Kp1 (Klebsiella pneumonia)) of 5.9 µM (≈ 1.51 µg/mL), an MIC80 (Klebsiella pneumoniae; Kp6 (Klebsiella pneumonia)) of 29.6 µM (≈ 7.59 µg/mL) and an MIC80 (MDR E. coli; Ec1 (MDR E. coli)) of 5.9 µM (≈ 1.51 µg/mL). For the same molecule, the MIC80 (MDR E. coli; Ec2 (MDR E. coli)) was 3.9 µM (≈ 1 µg/mL), the MIC80 (MDR E. coli; Ec3 (MDR E. coli)) was 5.9 µM (≈ 1.51 µg/mL) and the MIC80 (MDR E. coli; Ec4 (MDR E. coli)) was 8.8 µM (≈ 2.26 µg/mL). For the same molecule, the MIC80 (MDR E. coli; Ec5 (MDR E. coli)) was 29.6 µM (≈ 7.59 µg/mL), the MIC80 (MDR Enterobacteriaceae) was no more than 20 µM and the MIC80 (Morganella morganii) was 19.8 µM (≈ 5.08 µg/mL).
